Experimental data taken from the NIST ThermoML archive (doi:10.1016/j.fluid.2013.11.034).
± gives the expanded uncertainty stated by the source.

Experiments:
[1] = 101.33 kPa, Liquid, Vibrating tube method
[2] = refractive index (Na D-line) (dimensionless); conditions: 298.15 K; 101.33 kPa; Liquid; Standard Abbe refractometry

CCCCn1cc[n+](C)c1.F[P-](F)(F)(F)(F)F [1-butyl-3-methylimidazolium hexafluorophosphate]
mass density ([1]; 293.15 K): 1371.4 ± 1.2 kg/m3
mass density ([1]; 298.15 K): 1367.23 ± 1.1 kg/m3
refractive index [2]: 1.40926 ± 0.0006
